# Laboratory results taken from US20260116920A1, “HUMAN TRANSFERRIN RECEPTOR BINDING PEPTIDE” (PEPTIDREAM INC., priority 2021, published 2026).
# pKd: −log10 of the molar value. Starred links: 1 amine or outer side, 2 acyl side, 3 side chain; linkers in the order of their positions; H or OH if unused. Positions of bridges follow the written chain, without caps; N, C: chain ends. Non-standard residues stand in square brackets, D forms with d. Residues, ends and D or L forms follow the SMILES beside them. *: point of attachment. E(PEG8Me) = (S)-30-amino-27-oxo-2,5,8,11,14,17,20,23-octaoxa-26-azahentriacontane-31-oic acid, COCCOCCOCCOCCOCCOCCOCCOCCNC(=O)CC[C@H](N[*:1])C(=O)[*:2]; Qpipzaa = (S)-2-amino-5-(4-(carboxymethyl)piperazin-1-yl)-5-oxopentanoic acid, O=C(CC[C@H](N[*:1])C(=O)[*:2])N1CCN(CC(=O)[*:3])CC1; F4aao = (S)-2-amino-3-(4-(carboxymethoxy)phenyl)propanoic acid, O=C([C@H](Cc1ccc(OCC(=O)[*:3])cc1)N[*:1])[*:2]; NH(1-deoxy-D-glucityl) = OC[C@@H](O)[C@@H](O)[C@H](O)[C@@H](O)CN*; Trp(1-CH2CO) = O=C([C@H](Cc1cn(CC(=O)[*:3])c2ccccc12)N[*:1])[*:2]; Trp(1-CH2COOH) = N[C@@H](Cc1cn(CC(=O)O)c2ccccc12)C(=O)O; Phe(3-COOH) = N[C@@H](Cc1cccc(C(=O)O)c1)C(=O)O; NMePhe(3-Cl) = CN[C@@H](Cc1cccc(Cl)c1)C(=O)O; 3Pal(6-NH2) = Nc1ccc(C[C@H](N)C(=O)O)cn1; PEG8 = NCCOCCOCCOCCOCCOCCOCCOCCOCCC(=O)O; Lys(N3) = [N-]=[N+]=NCCCC[C@H](N)C(=O)O; NMe3Pal = CN[C@@H](Cc1cccnc1)C(=O)O; NMeY = CN[C@@H](Cc1ccc(O)cc1)C(=O)O; 3Pal = N[C@@H](Cc1cccnc1)C(=O)O; 4Pal = N[C@@H](Cc1ccncc1)C(=O)O; PEG4 = NCCOCCOCCOCCOCCC(=O)O; Carboxymethyl = O=C(O)C*; NHCH2CH2OMe = COCCN*
# Target: T1, human transferrin receptor (hTfR) (Homo sapiens, UniProt P02786)
# T1 construct: made in house
# T1 sequence (P02786 89-760 limits assumed): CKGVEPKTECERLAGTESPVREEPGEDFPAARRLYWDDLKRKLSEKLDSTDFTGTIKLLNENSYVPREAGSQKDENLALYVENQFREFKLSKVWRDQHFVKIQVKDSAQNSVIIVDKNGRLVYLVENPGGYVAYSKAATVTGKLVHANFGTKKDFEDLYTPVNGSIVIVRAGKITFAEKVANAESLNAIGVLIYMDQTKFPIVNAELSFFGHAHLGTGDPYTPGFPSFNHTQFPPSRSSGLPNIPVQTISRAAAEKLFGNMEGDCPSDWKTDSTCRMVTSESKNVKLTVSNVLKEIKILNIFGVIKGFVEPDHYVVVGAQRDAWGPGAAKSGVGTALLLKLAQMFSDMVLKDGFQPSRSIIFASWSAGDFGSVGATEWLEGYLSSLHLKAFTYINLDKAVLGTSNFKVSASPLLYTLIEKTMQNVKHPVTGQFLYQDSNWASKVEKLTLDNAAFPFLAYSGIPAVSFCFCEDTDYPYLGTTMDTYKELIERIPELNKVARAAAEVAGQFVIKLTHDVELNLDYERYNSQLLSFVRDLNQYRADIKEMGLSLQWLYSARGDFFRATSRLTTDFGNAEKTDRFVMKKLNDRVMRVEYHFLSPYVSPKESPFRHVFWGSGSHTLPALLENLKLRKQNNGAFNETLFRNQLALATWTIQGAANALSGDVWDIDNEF
# Assay: Evaluation of molecular interaction between transferrin receptor (hTfR) and peptide using surface plasmon resonance (SPR)
# Assay type: binding
# Details: KD class for binding to hTfR by SPR; peptide with the linker shown in the same line; 'low signal indicates no activity'
# Experimental: Evaluation Test of Molecular Interaction Between Transferrin Receptor (hTfR) and Peptide Using Surface Plasmon Resonance (SPR)
# The intermolecular interactions of various synthesized peptides with the transferrin receptor (hTfR) by surface plasmon resonance (SPR) of the peptides were tested by the methods described below. Specific test methods are shown below.
# NTA sensor chip (Global Life Sciences Technologies Japan K.K.) was inserted into BiacoreT200 (Global Life Sciences Technologies Japan K.K.), then the priming operation was performed three times by using running buffer containing: 10 mM HEPES pH 8.0 (Nacalai Tesque, Inc.), 150 mM NaCl (Nacalai Tesque, Inc.), 0.05% Tween 20 (Nacalai Tesque, Inc.), 0.1% BSA (SIGMA-ALDRICH) and 1.0% DMSO (FUJIFILM Wako Pure Chemical Corporation), and equilibrated at a flow rate of 30 μL/min. 350 mM EDTA solution was reacted at a flow rate of 10 μL/min for 60 seconds, 0.5 mM […] solution (Kishida Chemical Co., Ltd.) was reacted at a flow rate of 10 μL/min for 60 seconds, and then the NTA sensor chip was washed with 3 mM EDTA solution (Nacalai Tesque, Inc.) at a flow rate of 10 μL/min for 60 seconds. After mixing 50 μL each of 60 mM EDC solution (Global Life Science Technologies Japan K.K.) and 650 mM NHS solution (Global Life Science Technologies Japan K.K.), the reaction was carried out at a flow rate of 10 μL/min for 420 seconds. 150 μL of 0.5 μM hTfR dimer solution was prepared by dilution with running buffer and reacted at a flow rate of 10 μL/min for 300 seconds to immobilize hTfR on the NTA sensor chip. For the human transferrin receptor (hTfR), recombinant hTfR described in Example 2 of WO2018/124121 was used. After immobilization, capping was performed by reacting with 1.0 M ethanolamine solution (Global Life Sciences Technologies Japan K.K.) at a flow rate of 10 μL/min for 420 seconds. Peptide lysate prepared in DMSO solution to 10 mM was diluted with running buffer to be a final concentration of 10 μM peptide lysate, then peptide solutions of 100 nM, 50 nM, 25 nM, 10 nM, and 5 nM were prepared. Using the above samples, the kinetics of the peptide against hTfR was obtained by SPR measurement.
# The kinetic evaluation model was single-cycle kinetics, and curve fitting was performed using Biacore T200 Evaluation Software Version 3.0 (Global Life Science Technologies Japan K.K.). The binding of the peptide to hTfR was evaluated by performing curve fitting on the obtained sensorgram by least squares method and obtaining the KD value.
row,Compound,SPR
1,"894_0385 ({CH2CO}-AV[NMePhe(3-Cl)]V[Trp(1-CH2CO)]NY[F4aao]II[Qpipzaa][Qpipzaa]F[NMeY]C-NH2; thioether N-15; also: linker PEG4c, place not given here)",Low signal
2,894_3181 (AVFVWNYFIIEEFYC; cyclised or stapled),Low signal
3,894_3183 ({CH2CO}-AV[NMePhe(3-Cl)]V[Trp(1-CH2CO)]NY[F4aao]II[E(PEG8Me)][E(PEG8Me)]F[NMeY]CG[PEG8][Lys(N3)]-NH2; thioether N-15; SMILES CC[C@H](C)[C@@H]1NC(=O)[C@H](Cc2ccc(OCC(=O)O)cc2)NC(=O)[C@H](Cc2ccc(O)cc2)NC(=O)[C@H](CC(N)=O)NC(=O)[C@H](Cc2cn(CC(=O)O)c3ccccc23)NC(=O)[C@H](C(C)C)NC(=O)[C@H](Cc2cccc(Cl)c2)N(C)C(=O)[C@H](C(C)C)NC(=O)[C@H](C)NC(=O)CSC[C@@H](C(=O)NCC(=O)NCCOCCOCCOCCOCCOCCOCCOCCOCCC(=O)N[C@@H](CCCCN=[N+]=[N-])C(N)=O)NC(=O)[C@H](Cc2ccc(O)cc2)N(C)C(=O)[C@H](Cc2ccccc2)NC(=O)[C@H](CCC(=O)NCCOCCOCCOCCOCCOCCOCCOCCOC)NC(=O)[C@H](CCC(=O)NCCOCCOCCOCCOCCOCCOCCOCCOC)NC(=O)[C@H]([C@@H](C)CC)NC1=O),Low signal
4,894_3184 ({CH2CO}-AV[NMePhe(3-Cl)]V[Trp(1-CH2CO)]NY[F4aao]II[E(PEG8Me)][E(PEG8Me)][Phe(3-COOH)][NMeY]CG[Lys(N3)]-NH2; thioether N-15; SMILES CC[C@H](C)[C@@H]1NC(=O)[C@H](Cc2ccc(OCC(=O)O)cc2)NC(=O)[C@H](Cc2ccc(O)cc2)NC(=O)[C@H](CC(N)=O)NC(=O)[C@H](Cc2cn(CC(=O)O)c3ccccc23)NC(=O)[C@H](C(C)C)NC(=O)[C@H](Cc2cccc(Cl)c2)N(C)C(=O)[C@H](C(C)C)NC(=O)[C@H](C)NC(=O)CSC[C@@H](C(=O)NCC(=O)N[C@@H](CCCCN=[N+]=[N-])C(N)=O)NC(=O)[C@H](Cc2ccc(O)cc2)N(C)C(=O)[C@H](Cc2cccc(C(=O)O)c2)NC(=O)[C@H](CCC(=O)NCCOCCOCCOCCOCCOCCOCCOCCOC)NC(=O)[C@H](CCC(=O)NCCOCCOCCOCCOCCOCCOCCOCCOC)NC(=O)[C@H]([C@@H](C)CC)NC1=O),Low signal

# Same assay, conditions: KD class for binding to hTfR by SPR; peptide with the linker shown in the same line; 'low signal indicates no activity'; read-out: SPR
row,Compound,pKd
1,CC[C@H](C)[C@@H]1NC(=O)[C@H](Cc2ccc(OC)cc2)NC(=O)[C@H](Cc2ccc(O)cc2)NC(=O)[C@H](CC(N)=O)NC(=O)[C@H](Cc2c[nH]c3ccccc23)NC(=O)[C@H](C(C)C)NC(=O)[C@H](Cc2cccc(Cl)c2)N(C)C(=O)[C@H](C(C)C)NC(=O)[C@H](C)NC(=O)CSC[C@@H](C(=O)NCCOCCOCCOCCOCCC(N)=O)NC(=O)[C@H](Cc2ccc(O)cc2)N(C)C(=O)[C@H](Cc2ccc(O)cc2)NC(=O)[C@H](CCCNC(=N)N)NC(=O)[C@H](CCCCN)NC(=O)[C@H]([C@@H](C)CC)NC1=O [894_0292],7.00 to 9.00
2,CC[C@H](C)[C@@H]1NC(=O)[C@H](Cc2ccc(OC)cc2)NC(=O)[C@H](Cc2ccc(O)cc2)NC(=O)[C@H](CC(N)=O)NC(=O)[C@H](Cc2c[nH]c3ccccc23)N(C)C(=O)[C@H](C(C)C)NC(=O)[C@H](Cc2cccc(Cl)c2)N(C)C(=O)[C@H](C(C)C)NC(=O)[C@H](C)NC(=O)CSC[C@@H](C(=O)NCCOCCOCCOCCOCCC(N)=O)NC(=O)[C@H](Cc2ccc(O)cc2)N(C)C(=O)[C@H](Cc2ccc(O)cc2)NC(=O)[C@H](CCCNC(=N)N)NC(=O)[C@H](CCCNC(=N)N)NC(=O)[C@H]([C@@H](C)CC)NC1=O [894_0293],7.00 to 9.00
3,CC[C@H](C)[C@@H]1NC(=O)[C@H](Cc2cccnc2)NC(=O)[C@H](Cc2ccc(N)nc2)NC(=O)[C@H](CC(N)=O)NC(=O)[C@H](Cc2c[nH]c3ccccc23)NC(=O)[C@H](C(C)C)NC(=O)[C@H](Cc2cccnc2)N(C)C(=O)[C@H](C(C)C)NC(=O)[C@H](C)NC(=O)CSC[C@@H](C(=O)NCCOCCOCCOCCOCCC(N)=O)NC(=O)[C@H](Cc2ccc(O)cc2)N(C)C(=O)[C@H](Cc2ccncc2)NC(=O)[C@H](CCCNC(=N)N)NC(=O)[C@H](CCCNC(=N)N)NC(=O)[C@H]([C@@H](C)CC)NC1=O [894_0321] ({CH2CO}-AV[NMe3Pal]VWN[3Pal(6-NH2)][3Pal]IIRR[4Pal][NMeY]C[PEG4]-NH2; thioether N-15),7.00 to 9.00
4,CC[C@H](C)[C@@H]1NC(=O)[C@H](Cc2cccnc2)NC(=O)[C@H](Cc2ccc(O)cc2)NC(=O)[C@H](CC(N)=O)NC(=O)[C@H](Cc2c[nH]c3ccccc23)NC(=O)[C@H](C(C)C)NC(=O)[C@H](Cc2cccc(Cl)c2)N(C)C(=O)[C@H](C(C)C)NC(=O)[C@H](C)NC(=O)CSC[C@@H](C(=O)NCCOCCOCCOCCOCCC(N)=O)NC(=O)[C@H](Cc2ccc(O)cc2)N(C)C(=O)[C@H](Cc2ccncc2)NC(=O)[C@H](CCC(=O)NCCOC)NC(=O)[C@H](CCC(=O)NCCOC)NC(=O)[C@H]([C@@H](C)CC)NC1=O [894_0326] ({CH2CO}-AV[NMePhe(3-Cl)]VWNY[3Pal]IIE(NHCH2CH2OMe)E(NHCH2CH2OMe)[4Pal][NMeY]C[PEG4]-NH2; thioether N-15),7.00 to 9.00
5,CC[C@H](C)[C@@H]1NC(=O)[C@H](Cc2cccnc2)NC(=O)[C@H](Cc2ccc(O)cc2)NC(=O)[C@H](CC(N)=O)NC(=O)[C@H](Cc2c[nH]c3ccccc23)NC(=O)[C@H](C(C)C)NC(=O)[C@H](Cc2cccc(Cl)c2)N(C)C(=O)[C@H](C(C)C)NC(=O)[C@H](C)NC(=O)CSC[C@@H](C(=O)NCCOCCOCCOCCOCCC(N)=O)NC(=O)[C@H](Cc2ccc(O)cc2)N(C)C(=O)[C@H](Cc2ccncc2)NC(=O)[C@H](CCC(=O)NC[C@H](O)[C@@H](O)[C@H](O)[C@H](O)CO)NC(=O)[C@H](CCC(=O)NC[C@H](O)[C@@H](O)[C@H](O)[C@H](O)CO)NC(=O)[C@H]([C@@H](C)CC)NC1=O [894_0328] ({CH2CO}-AV[NMePhe(3-Cl)]VWNY[3Pal]IIE(NH(1-deoxy-D-glucityl))E(NH(1-deoxy-D-glucityl))[4Pal][NMeY]C[PEG4]-NH2; thioether N-15),7.00 to 9.00
6,CC[C@H](C)[C@@H]1NC(=O)[C@H](Cc2ccc(OCC(=O)O)cc2)NC(=O)[C@H](Cc2ccc(O)cc2)NC(=O)[C@H](CC(N)=O)NC(=O)[C@H](Cc2cn(CC(=O)O)c3ccccc23)NC(=O)[C@H](C(C)C)NC(=O)[C@H](Cc2cccc(Cl)c2)N(C)C(=O)[C@H](C(C)C)NC(=O)[C@H](C)NC(=O)CSC[C@@H](C(=O)NCCOCCOCCOCCOCCC(N)=O)NC(=O)[C@H](Cc2ccc(O)cc2)N(C)C(=O)[C@H](Cc2cccc(C(=O)O)c2)NC(=O)[C@H](CCC(=O)NCCOC)NC(=O)[C@H](CCC(=O)NCCOC)NC(=O)[C@H]([C@@H](C)CC)NC1=O [894_0329] ({CH2CO}-AV[NMePhe(3-Cl)]V[Trp(1-CH2COOH)]NYY(Carboxymethyl)IIE(NHCH2CH2OMe)E(NHCH2CH2OMe)[Phe(3-COOH)][NMeY]C[PEG4]-NH2; thioether N-15),7.00 to 9.00
7,CC[C@H](C)[C@@H]1NC(=O)[C@H](Cc2ccc(OC)cc2)NC(=O)[C@H](Cc2ccc(O)cc2)NC(=O)[C@H](CC(N)=O)NC(=O)[C@H](Cc2c[nH]c3ccccc23)NC(=O)[C@H](C(C)C)NC(=O)[C@H](Cc2cccc(Cl)c2)N(C)C(=O)[C@H](C(C)C)NC(=O)[C@H](C)NC(=O)CSC[C@@H](C(=O)NCCOCCOCCOCCOCCC(N)=O)NC(=O)[C@H](Cc2ccc(O)cc2)N(C)C(=O)[C@H](Cc2ccccc2)NC(=O)[C@H](CCC(=O)NCCOC)NC(=O)[C@H](CCC(=O)NCCOC)NC(=O)[C@H]([C@@H](C)CC)NC1=O [894_0330] ({CH2CO}-AV[NMePhe(3-Cl)]VWNYY(Me)IIE(NHCH2CH2OMe)E(NHCH2CH2OMe)F[NMeY]C[PEG4]-NH2; thioether N-15),7.00 to 9.00
8,CC[C@H](C)[C@@H]1NC(=O)[C@H](Cc2ccc(OC)cc2)NC(=O)[C@H](Cc2ccc(O)cc2)NC(=O)[C@H](CC(N)=O)NC(=O)[C@H](Cc2c[nH]c3ccccc23)NC(=O)[C@H](C(C)C)NC(=O)[C@H](Cc2cccc(Cl)c2)N(C)C(=O)[C@H](C(C)C)NC(=O)[C@H](C)NC(=O)CSC[C@@H](C(=O)NCCOCCOCCOCCOCCC(N)=O)NC(=O)[C@H](Cc2ccc(O)cc2)N(C)C(=O)[C@H](Cc2ccccc2)NC(=O)[C@H](CCC(N)=O)NC(=O)[C@H](CCC(N)=O)NC(=O)[C@H]([C@@H](C)CC)NC1=O [894_0331] ({CH2CO}-AV[NMePhe(3-Cl)]VWNYY(Me)IIQQF[NMeY]C[PEG4]-NH2; thioether N-15),7.00 to 9.00
